According to US12077503B2, “Substituted cyclic amides and their use as herbicides” (FMC CORPORATION, priority 2015, dated 2024):

Assays:
Test in all cases: Test C preemergence
Type in all cases: in vivo
[1] = tested on: pigweed (Amaranthus retroflexus); settings: for Plant response rating, Pigweed: scale 0 to 100, 0 no effect, 100 complete control
Outline: (§1)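 After treatment with surfactant-containing formulations, either preemergence to seeds in loam-sand soil or postemergence to potted seedlings at 2–18 cm, plants were kept 13–15 d in a greenhouse. Observers then compared them with controls and assigned ratings, 0 signifying no effect and 100 complete control.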

[2] = tested on: wheat (winter wheat, Triticum aestivum); settings: for Plant response rating, Wheat: scale 0 to 100, 0 no effect, 100 complete control
Outline: as §1

[3] = tested on: velvetleaf (Abutilon theophrasti); settings: for Plant response rating, Velvetleaf: scale 0 to 100, 0 no effect, 100 complete control
Outline: as §1

[4] = tested on: nutsedge, yellow (yellow nutsedge, Cyperus esculentus); settings: for Plant response rating, Nutsedge, Yellow: scale 0 to 100, 0 no effect, 100 complete control
Outline: as §1

[5] = tested on: waterhemp (common waterhemp, Amaranthus rudis); settings: for Plant response rating, Waterhemp: scale 0 to 100, 0 no effect, 100 complete control
Outline: as §1

[6] = tested on: foxtail, giant (giant foxtail, Setaria faberii); settings: for Plant response rating, Foxtail, Giant: scale 0 to 100, 0 no effect, 100 complete control
Outline: as §1

[7] = tested on: barnyardgrass (Echinochloa crus-galli); settings: for Plant response rating, Barnyardgrass: scale 0 to 100, 0 no effect, 100 complete control
Outline: as §1

[8] = tested on: corn (Zea mays); settings: for Plant response rating, Corn: scale 0 to 100, 0 no effect, 100 complete control
Outline: as §1

[9] = tested on: johnsongrass (Sorghum halepense); settings: for Plant response rating, Johnsongrass: scale 0 to 100, 0 no effect, 100 complete control
Outline: as §1

[10] = tested on: soybean (Glycine max)
Outline: as §1

[11] = tested on: lambsquarters (Chenopodium album); settings: for Plant response rating, Lambsquarters: scale 0 to 100, 0 no effect, 100 complete control
Outline: as §1

[12] = tested on: ragweed (common ragweed, Ambrosia elatior); settings: for Plant response rating, Ragweed: scale 0 to 100, 0 no effect, 100 complete control
Outline: as §1

[13] = tested on: Galium (catchweed bedstraw, Galium aparine); settings: for Plant response rating, Galium: scale 0 to 100, 0 no effect, 100 complete control
Outline: as §1

[14] = tested on: oilseed rape (Brassica napus); settings: for Plant response rating, Oilseed Rape: scale 0 to 100, 0 no effect, 100 complete control
Outline: as §1

[15] = tested on: morningglory (Ipomoea coccinea); settings: for Plant response rating, Morningglory: scale 0 to 100, 0 no effect, 100 complete control
Outline: as §1

[16] = tested on: crabgrass, large (large crabgrass, Digitaria sanguinalis); settings: for Plant response rating, Crabgrass, Large: scale 0 to 100, 0 no effect, 100 complete control
Outline: as §1

[17] = tested on: blackgrass (Alopecurus myosuroides); settings: for Plant response rating, Blackgrass: scale 0 to 100, 0 no effect, 100 complete control
Outline: as §1

[18] = tested on: ryegrass, Italian (Italian ryegrass, Lolium multiflorum); settings: for Plant response rating, Ryegrass, Italian: scale 0 to 100, 0 no effect, 100 complete control
Outline: as §1

[19] = 31 g ai/ha, 0 is no effect, 100 is complete control

Which “Plant response rating (scale of 0 to 100), Pigweed” value [1, 19] does the source give for `CC(C)Oc1cccc(C2CN(C)C(=O)C2C(=O)Nc2cccc(F)c2F)c1` (stereo not shown) [Compound 651] here?
The value was 35.

And the “Plant response rating, Pigweed” value ([1]; 62 g ai/ha)?
The value was 40.

And the “Plant response rating, Pigweed” value ([1]; 125 g ai/ha)?
The value was 50.

What about the “Plant response rating, Pigweed” value ([1]; 250 g ai/ha) of the same molecule?
Its value is 85.

And the “Plant response rating (scale of 0 to 100), Wheat” value [2, 19]?
Its value is 50.

What about the “Plant response rating, Wheat” value ([2]; 62 g ai/ha) of the same molecule?
Its value is 50.

What about the “Plant response rating, Wheat” value ([2]; 125 g ai/ha) of the same molecule?
The value was 55.

What about the “Plant response rating, Wheat” value ([2]; 250 g ai/ha) of the same molecule?
The value was 75.

And the “Plant response rating (scale of 0 to 100), Velvetleaf” value [3, 19]?
The value was 25.

And the “Plant response rating, Velvetleaf” value ([3]; 62 g ai/ha)?
The value was 45.

What about the “Plant response rating, Velvetleaf” value ([3]; 125 g ai/ha) of the same molecule?
Its value is 70.

What about the “Plant response rating, Velvetleaf” value ([3]; 250 g ai/ha) of the same molecule?
The value was 70.

And the “Plant response rating (scale of 0 to 100), Nutsedge, Yellow” value [4, 19]?
The value was 0.

What about the “Plant response rating, Nutsedge, Yellow” value ([4]; 62 g ai/ha) of the same molecule?
The value was 0.

What about the “Plant response rating, Nutsedge, Yellow” value ([4]; 125 g ai/ha) of the same molecule?
Its value is 0.

What about the “Plant response rating, Nutsedge, Yellow” value ([4]; 250 g ai/ha) of the same molecule?
The value was 0.

What about the “Plant response rating (scale of 0 to 100), Waterhemp” value [5, 19] of the same molecule?
The value was 20.

What about the “Plant response rating, Waterhemp” value ([5]; 62 g ai/ha) of the same molecule?
Its value is 40.

And the “Plant response rating, Waterhemp” value ([5]; 125 g ai/ha)?
The value was 50.

What about the “Plant response rating, Waterhemp” value ([5]; 250 g ai/ha) of the same molecule?
Its value is 85.

And the “Plant response rating (scale of 0 to 100), Foxtail, Giant” value [6, 19]?
Its value is 95.

What about the “Plant response rating, Foxtail, Giant” value ([6]; 62 g ai/ha) of the same molecule?
The value was 98.

What about the “Plant response rating, Foxtail, Giant” value ([6]; 125 g ai/ha) of the same molecule?
The value was 98.

What about the “Plant response rating, Foxtail, Giant” value ([6]; 250 g ai/ha) of the same molecule?
The value was 100.

What about the “Plant response rating (scale of 0 to 100), Barnyardgrass” value [7, 19] of the same molecule?
Its value is 95.

What about the “Plant response rating, Barnyardgrass” value ([7]; 62 g ai/ha) of the same molecule?
Its value is 98.

And the “Plant response rating, Barnyardgrass” value ([7]; 125 g ai/ha)?
Its value is 100.

What about the “Plant response rating, Barnyardgrass” value ([7]; 250 g ai/ha) of the same molecule?
The value was 100.

What about the “Plant response rating (scale of 0 to 100), Corn” value [8, 19] of the same molecule?
The value was 25.

And the “Plant response rating, Corn” value ([8]; 62 g ai/ha)?
Its value is 55.

What about the “Plant response rating, Corn” value ([8]; 125 g ai/ha) of the same molecule?
Its value is 70.

What about the “Plant response rating, Corn” value ([8]; 250 g ai/ha) of the same molecule?
The value was 70.

What about the “Plant response rating (scale of 0 to 100), Johnsongrass” value [9, 19] of the same molecule?
The value was 20.

And the “Plant response rating, Johnsongrass” value ([9]; 62 g ai/ha)?
The value was 50.

What about the “Plant response rating, Johnsongrass” value ([9]; 125 g ai/ha) of the same molecule?
Its value is 70.

What about the “Plant response rating, Johnsongrass” value ([9]; 250 g ai/ha) of the same molecule?
The value was 80.

And the “Plant response rating (scale of 0 to 100), Soybean” value [10, 19]?
The value was 5.

What about the “Plant response rating, Soybean” value ([10]; 125 g ai/ha, scale 0 to 100, 0 no effect, 100 complete control) of the same molecule?
The value was 0.

And the “Plant response rating (scale of 0 to 100), Lambsquarters” value [11, 19]?
Its value is 35.

What about the “Plant response rating, Lambsquarters” value ([11]; 62 g ai/ha) of the same molecule?
Its value is 55.

What about the “Plant response rating, Lambsquarters” value ([11]; 125 g ai/ha) of the same molecule?
Its value is 85.

And the “Plant response rating, Lambsquarters” value ([11]; 250 g ai/ha)?
Its value is 100.

What about the “Plant response rating (scale of 0 to 100), Ragweed” value [12, 19] of the same molecule?
The value was 20.

And the “Plant response rating, Ragweed” value ([12]; 62 g ai/ha)?
Its value is 25.

And the “Plant response rating, Ragweed” value ([12]; 125 g ai/ha)?
Its value is 60.

And the “Plant response rating, Ragweed” value ([12]; 250 g ai/ha)?
Its value is 85.

And the “Plant response rating (scale of 0 to 100), Galium” value [13, 19]?
Its value is 60.

What about the “Plant response rating, Galium” value ([13]; 62 g ai/ha) of the same molecule?
Its value is 50.

What about the “Plant response rating, Galium” value ([13]; 125 g ai/ha) of the same molecule?
The value was 90.

What about the “Plant response rating, Galium” value ([13]; 250 g ai/ha) of the same molecule?
Its value is 90.

And the “Plant response rating (scale of 0 to 100), Oilseed Rape” value [14, 19]?
The value was 75.

What about the “Plant response rating, Oilseed Rape” value ([14]; 62 g ai/ha) of the same molecule?
Its value is 80.

And the “Plant response rating, Oilseed Rape” value ([14]; 125 g ai/ha)?
Its value is 90.

What about the “Plant response rating, Oilseed Rape” value ([14]; 250 g ai/ha) of the same molecule?
Its value is 90.

And the “Plant response rating (scale of 0 to 100), Morningglory” value [15, 19]?
Its value is 0.

What about the “Plant response rating, Morningglory” value ([15]; 62 g ai/ha) of the same molecule?
The value was 0.

And the “Plant response rating, Morningglory” value ([15]; 125 g ai/ha)?
Its value is 0.

What about the “Plant response rating, Morningglory” value ([15]; 250 g ai/ha) of the same molecule?
Its value is 0.

What about the “Plant response rating (scale of 0 to 100), Crabgrass, Large” value [16, 19] of the same molecule?
The value was 98.

What about the “Plant response rating, Crabgrass, Large” value ([16]; 62 g ai/ha) of the same molecule?
The value was 100.

And the “Plant response rating, Crabgrass, Large” value ([16]; 125 g ai/ha)?
Its value is 100.

And the “Plant response rating, Crabgrass, Large” value ([16]; 250 g ai/ha)?
Its value is 100.

And the “Plant response rating (scale of 0 to 100), Blackgrass” value [17, 19]?
The value was 40.

And the “Plant response rating, Blackgrass” value ([17]; 62 g ai/ha)?
The value was 45.

And the “Plant response rating, Blackgrass” value ([17]; 125 g ai/ha)?
The value was 60.

And the “Plant response rating, Blackgrass” value ([17]; 250 g ai/ha)?
The value was 85.

And the “Plant response rating (scale of 0 to 100), Ryegrass, Italian” value [18, 19]?
The value was 15.

What about the “Plant response rating, Ryegrass, Italian” value ([18]; 62 g ai/ha) of the same molecule?
The value was 40.

And the “Plant response rating, Ryegrass, Italian” value ([18]; 125 g ai/ha)?
The value was 75.

And the “Plant response rating, Ryegrass, Italian” value ([18]; 250 g ai/ha)?
The value was 85.
